# Laboratory results as given in PMC3996151, “Safety and pharmacological characterization of the molecular tweezer CLR01 – a broad-spectrum inhibitor of amyloid proteins’ toxicity” (BMC Pharmacology & Toxicology, 2014).
# Marks after values point to notes of the source that are not given here.
# Columns and labels:
# α-synuclein (α-syn) = test system: α-synuclein (α-syn); parameters: method as in PMID 22373667; settings: up to 10 μM in the water environment; cited from earlier work
# [1] = parameters: method as in PMID 23183235; settings: mouse liver microsomes; cited from earlier work
# C57BL/6J mice = test: Chronic toxicity: daily IP injection for 30 days, behaviour, histopathology and serum chemistry; format: in vivo, mouse; settings: for Alanine aminotransferase / Albumin / Alkaline phosphatase / Aspartate aminotransferase / Blood urea nitrogen / Cholesterol / Creatinine / Glucose / Lactate dehydrogenase / Total bilirubin / Total protein: serum, 2-m old WT mice, chronic, 30 day, mean
# Protocol: For acute-toxicity studies, 2-m old C57BL/6J mice were administered saline-vehicle, 10 mg/kg, or 100 mg/kg CLR01 by a single intraperitoneal (IP) injection. The mice were sacrificed 24-h after the injection. For chronic toxicity studies, 2-m old C57BL/6J mice were administered saline-vehicle, 3 mg/kg, or 10 mg/kg CLR01 by daily IP injection for 30 days. Acute-study mice were visually monitored for 1 h after injection and then every 50 min for 10 min over the first 6 h of the experiment for changes in activity and behavior. The mice also were monitored every 110 min for 10 min during the last 6 h of the experiment until they were sacrificed. Chronic-study mice were monitored for 1 h after injection and then 3 times a day for 10 min each, every day of the first week. During that week there were no appreciable changes in the behavior, appearance, or weight of the mice. Therefore, monitoring was reduced to twice a day during the remainder of the experiment. On all occasions, the mice were monitored for any signs of severe toxicity, including bruising or bleeding, pale mucous membranes or extremities, diarrhea, dehydration, neurological signs, such as difficulty ambulating or paralysis, tachypnea or dyspnea, or abdominal distension.
# Following the treatment, mice were anesthetized with pentobarbital and blood was collected by cardiac puncture and placed in tubes containing a clot activator for serum separation (Capiject T-MG tubes, Terumo Medical Products, Somerset, NJ). Then, the lungs were filled through the trachea with 4% paraformaldehyde to prevent collapse, and tissues (brain, heart-lung, liver, kidney, and spleen) were collected and fixed for 72 h in 4% paraformaldehyde at a ratio of ~1:10 tissue:fixative (v/v). Tissues then were transferred into a 70%-ethanol solution and transferred to the UCLA Mouse Pathology Core for paraffin embedding, sectioning, and tissue histopathology analysis. Serum was analyzed by the UCLA Division of Laboratory Animal Medicine (DLAM) Animal Serology & Molecular Diagnostic Laboratory for an 11-panel serum chemical analysis using the ACE Alera Clinical Chemistry system (Alfa Wassermann Diagnostic Technologies, West Caldwell, NJ). The panel included: alanine aminotransferase, aspartate aminotransferase, albumin, alkaline phosphatase, creatinine, total bilirubin, lactate dehydrogenase, blood urea nitrogen, cholesterol, total protein, and glucose.
# If CLR01 indeed operates by a process-specific mechanism and remodels the abnormal aggregation of amyloidogenic proteins at substantially lower concentrations than concentrations that would perturb normal physiological processes, one would expect the compound to have a high therapeutic index. To calculate the therapeutic index, a lethal dose must be reached. […] The next rational step was to test the safety margin of CLR01 in vivo. Based on the in vitro and cell culture data, we expected that 100 mg/kg would be lethal to mice and therefore used it as the highest dose in our safety-evaluation experiments. We assessed the safety of CLR01 in 2-m old, male, WT mice either 24 h following a single IP injection of 10 or 100 mg/kg (acute administration) or after daily IP injection of 3 or 10 mg/kg for 30 days (chronic administration). Following euthanasia, serum was collected for chemical analysis and tissues were harvested for histopathology evaluation.
# [2] = test system: nerve growth factor-differentiated rat pheochromocytoma cells; parameters: method as in PMID 21916458, PMID 22860214; settings: cited from earlier work
# [3] = daily IP 3 or 10 mg/kg for 30 days
smiles,measurement,setting,value
O=P(O)(O)Oc1c2c(c(OP(=O)(O)O)c3c1C1CC3c3cc4c(cc31)C1CC4c3ccccc31)C1CC2c2cc3c(cc21)C1CC3c2ccccc21 [CLR01],Effect in zebrafish model of α-syn toxicity,α-synuclein (α-syn),prevented deformation and mortality
same,Stability,[1],100%
same,Chronically administered dose without toxicity relative to the efficacious dose of 40 μg/kg/day,C57BL/6J mice; 10 mg/kg/day,250 times
same,Liver histopathology,"C57BL/6J mice; daily IP 3 mg/kg for 30 days, a few mice, judged not pathogenic and unlikely related to treatment",mild-to-moderate multifocal extramedullary hematopoiesis in the liver
same,Pancreas finding,"C57BL/6J mice; daily IP 3 mg/kg for 30 days, two mice, unlikely related to treatment",Mild pancreatitis
same,Reduction in blood cholesterol compared to the control group,C57BL/6J mice; daily IP 10 mg/kg for 30 days,~ 40%
same,Tissue histopathology,C57BL/6J mice; daily IP 10 mg/kg for 30 days,no signs of tissue pathology or liver necrosis
same,Behavior (levels and type of activity and grooming),C57BL/6J mice; [3],behaved indistinguishably from control mice
same,"Histopathology of heart, lung, spleen and brain",C57BL/6J mice; [3],indistinguishable from vehicle-treated mice
same,Alanine aminotransferase,"C57BL/6J mice; daily IP dose 3 mg/kg, N = 10",43.1 U/L
same,Albumin,"C57BL/6J mice; daily IP dose 3 mg/kg, N = 10",2.8 g/dL
same,Alkaline phosphatase,"C57BL/6J mice; daily IP dose 3 mg/kg, N = 10",104.4 U/L
same,Aspartate aminotransferase,"C57BL/6J mice; daily IP dose 3 mg/kg, N = 10",150.9 U/L
same,Blood urea nitrogen,"C57BL/6J mice; daily IP dose 3 mg/kg, N = 10",22.3 mg/dL
same,Cholesterol,"C57BL/6J mice; daily IP dose 3 mg/kg, N = 10",80.9 mg/dL
same,Creatinine,"C57BL/6J mice; daily IP dose 3 mg/kg, N = 10",0.3 mg/dL
same,Glucose,"C57BL/6J mice; daily IP dose 3 mg/kg, N = 10",256.7 mg/dL
same,Lactate dehydrogenase,"C57BL/6J mice; daily IP dose 3 mg/kg, N = 10",507.0 U/L
same,Total bilirubin,"C57BL/6J mice; daily IP dose 3 mg/kg, N = 10",0.2 mg/dL
same,Total protein,"C57BL/6J mice; daily IP dose 3 mg/kg, N = 10",4.7 g/dL
same,Alanine aminotransferase,"C57BL/6J mice; daily IP dose 10 mg/kg, N = 9",38.4 U/L
same,Albumin,"C57BL/6J mice; daily IP dose 10 mg/kg, N = 9",2.7 g/dL
same,Alkaline phosphatase,"C57BL/6J mice; daily IP dose 10 mg/kg, N = 9",106.1 U/L
same,Aspartate aminotransferase,"C57BL/6J mice; daily IP dose 10 mg/kg, N = 9",236.2 U/L
same,Blood urea nitrogen,"C57BL/6J mice; daily IP dose 10 mg/kg, N = 9",24.1 mg/dL
same,Creatinine,"C57BL/6J mice; daily IP dose 10 mg/kg, N = 9",0.2 mg/dL
same,Glucose,"C57BL/6J mice; daily IP dose 10 mg/kg, N = 9",233.9 mg/dL
same,Lactate dehydrogenase,"C57BL/6J mice; daily IP dose 10 mg/kg, N = 9",483.0 U/L
same,Total bilirubin,"C57BL/6J mice; daily IP dose 10 mg/kg, N = 9",0.2 mg/dL
same,Total protein,"C57BL/6J mice; daily IP dose 10 mg/kg, N = 9",4.6 g/dL
same,Cholesterol,"C57BL/6J mice; daily IP dose 10 mg/kg, N = 9, p < 0.01 vs control",56.8** mg/dL
same,Concentration at which a mild decrease in cell viability was observed,[2],400 µM
same,Concentration up to which no toxicity was detected,[2],up to 200 μM
